The target in assay [1] is T1, hTREM2 (Homo sapiens, UniProt Q9NZC2). The experiment in a line: Phospho-Syk AlphaLisa assay in HEK293T-hTREM2 cells expressing human TREM2 and DAP12 (Example A2). The class given is cell-based. On the set-up: expressed in transfected cells; host or cells: HEK293T-hTREM2 cells. Conditions: HEK293 cells, Syk phosphorylation, Examples 276-283. The procedure: Measurement of TREM2 agonist potency was done using a HEK cell line expressing human TREM2 and DAP12 (HEK293T-hTREM2 cells). Binding of small molecules to, and activation of, TREM2 increases the phosphorylation of Syk. The resultant levels of Syk phosphorylation were measured using a commercial AlphaLisa reagent kit. To perform the assay, HEK-hTREM2 cells were plated at 14,000 cells per well in a 384 well plate, in 25 μL of complete growth media and incubated at 37° C., 5% CO2 for 20-24 hours. Prior to the assay, test compounds were diluted in the 384 well plates in assay buffer and allowed to equilibrate for 30 minutes. Growth media was removed from cell plates by inversion on blotting paper, and 25 μL of test compounds in assay buffer was added to cells. Cells were incubated for 45 minutes at room temperature. After 45 minutes, assay buffer was removed and 10 μL of lysis buffer was added. Plates were shaken for 20 minutes at 350 RPM at room temperature. After complete lysis, AlphaLisa reagents were added to the lysate, and fluorescence intensity was measured using a Perkin Elmer Envision plate reader. Intensities were used to generate a standard curve, and % activation was calculated. Curve fitting was performed using Prism v9 software, log(agonist) vs response—variable slope (four parameters), and EC50s were calculated from the curve fit.
T1 sequence (Q9NZC2 19-230): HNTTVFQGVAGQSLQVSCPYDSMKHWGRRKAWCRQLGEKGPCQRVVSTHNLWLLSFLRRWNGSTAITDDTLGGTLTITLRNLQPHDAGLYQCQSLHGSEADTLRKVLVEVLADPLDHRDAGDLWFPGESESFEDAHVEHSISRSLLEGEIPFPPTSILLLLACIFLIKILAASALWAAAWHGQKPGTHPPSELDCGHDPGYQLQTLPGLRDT
T1 sequence (O43914 22-113 partner): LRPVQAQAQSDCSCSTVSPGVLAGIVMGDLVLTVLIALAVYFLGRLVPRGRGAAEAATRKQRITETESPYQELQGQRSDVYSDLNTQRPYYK
The results presented in Table 11 have been generated with the in vitro assay described above for Examples 276-283. This assay may be used to test any of the compounds described herein to assess and characterize a compound's ability to act as an agonist of TREM2.

Assay [2] concerns the target T1, hTREM2. The experiment in a line: Phospho-Syk AlphaScreen/AlphaLISA assay in TREM2 and DAP12 overexpressing HEK293 cells (Example A1). The assay is classed as cell-based. On the set-up: expressed in transfected cells. As to conditions: HEK293 cells; for EC50: read-out: hTREM2 EC50. The essentials:
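Single-cell-cloned HEK293 stably overexpressing TREM2 and DAP12, plated 20,000 cells/well for 20 h, then exposed to compounds (1% DMSO) 45 min at room temperature. Lysates probed for phospho-Syk by AlphaLISA sandwich (anti-pSyk, biotinylated anti-Syk); signal normalized to percent of control (100 nM anti-TREM2 antibody vs isotype) and fitted by 4-parameter logistic.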

`Cc1cc([C@H]2C[C@@H](c3cc4nc(C)n(C)c(=O)c4c(-c4ccc(F)cc4F)n3)CCO2)ccn1` (racemic) [Example 278, 5-(2,4-difluorophenyl)-2,3-dimethyl-7-(2-(2-methylpyridin-4-yl)tetrahydro-2H-pyran-4-yl)pyrido[4,3-d]pyrimidin-4(3H)-one]: the EC50 at hTREM2 [1] is 50 to 500 nM. The same measure, in the same setting: the figure for `Cc1cc([C@H]2C[C@@H](c3cc4nc(C)n(C)c(=O)c4c(C45CC(C(F)(F)F)(C4)C5)n3)CCO2)ccn1` (racemic) [Example 281, 2,3-dimethyl-7-(2-(2-methylpyridin-4-yl)tetrahydro-2H-pyran-4-yl)-5-(3-(trifluoromethyl)bicyclo[1.1.1]pentan-1-yl)pyrido[4,3-d]pyrimidin-4(3H)-one] is under 50 nM. On to `Cc1nc2cc(N3CCO[C@@H](c4ccnc(C(F)(F)F)c4)C3)nc(-c3ccc(Cl)cc3F)c2c(=O)n1C` [Example 266, (S)-5-(4-chloro-2-fluorophenyl)-2,3-dimethyl-7-(2-(2-(trifluoromethyl)pyridin-4-yl)morpholino)pyrido[4,3-d]pyrimidin-4(3H)-one], for which, on hTREM2 [2], the Emax result is “+++ (Emax>200 and ≤300)”; the EC50 was under 50 nM. Take `COc1cc([C@@H]2C[C@H](c3cc4nc(C)n(C)c(=O)c4c(-c4ccc(Cl)cc4F)n3)CCO2)ccn1` [Example 267, 5-(4-chloro-2-fluorophenyl)-7-((2S,4R)-2-(2-methoxypyridin-4-yl)tetrahydro-2H-pyran-4-yl)-2,3-dimethylpyrido[4,3-d]pyrimidin-4(3H)-one]: on hTREM2 [2], the Emax result was “+++ (Emax>200 and ≤300)”; the EC50 is under 50 nM. `COc1cc([C@@H]2C[C@@H](c3cc4nc(C)n(C)c(=O)c4c(-c4ccc(Cl)cc4F)n3)CCO2)ccn1` [Example 268, 5-(4-chloro-2-fluorophenyl)-7-((2S,4S)-2-(2-methoxypyridin-4-yl)tetrahydro-2H-pyran-4-yl)-2,3-dimethylpyrido[4,3-d]pyrimidin-4(3H)-one]: on hTREM2 [2], the Emax entry is “++++ (Emax>300)” and the EC50 fell in the range of 50 to 500 nM. Turning to `Cc1nc2cc(N3CCO[C@H]([C@@H]4CCO4)C3)nc(-c3ccc(Cl)cc3F)c2c(=O)n1C` [Example 269, 5-(4-chloro-2-fluorophenyl)-2,3-dimethyl-7-((S)-2-((S)-oxetan-2-yl)morpholino)pyrido[4,3-d]pyrimidin-4(3H)-one], at hTREM2 [2], the Emax entry was “++++ (Emax>300)” and the EC50 fell in the range of 500 to 3000 nM. Take `Cc1nc2cc(N3CCO[C@@H]([C@@H]4CCO4)C3)nc(-c3ccc(Cl)cc3F)c2c(=O)n1C` [Example 270, 5-(4-chloro-2-fluorophenyl)-2,3-dimethyl-7-((R)-2-((S)-oxetan-2-yl)morpholino)pyrido[4,3-d]pyrimidin-4(3H)-one]: on hTREM2 [2], the Emax result was “+++ (Emax>200 and ≤300)”; the EC50 fell in the range of 500 to 3000 nM. In the case of `Cc1nnc([C@H]2CN(c3cc4nc(C)n(C)c(=O)c4c(-c4ccc(Cl)cc4F)n3)CCO2)o1` [Example 271, (R)-5-(4-chloro-2-fluorophenyl)-2,3-dimethyl-7-(2-(5-methyl-1,3,4-oxadiazol-2-yl)morpholino)pyrido[4,3-d]pyrimidin-4(3H)-one], at hTREM2 [2], the Emax entry is “+++ (Emax>200 and ≤300)”; the EC50 lay within 50 to 500 nM. As to `Cc1ccc([C@@H]2C[C@@H](c3cc4nc(C)n(C)c(=O)c4c(-c4ccc(Cl)cc4F)n3)CCO2)cn1` [Example 272, 5-(4-chloro-2-fluorophenyl)-2,3-dimethyl-7-((2S,4S)-2-(6-methylpyridin-3-yl)tetrahydro-2H-pyran-4-yl)pyrido[4,3-d]pyrimidin-4(3H)-one], at hTREM2 [2], the Emax entry is “++++ (Emax>300)” and the EC50 lay within 50 to 500 nM.

Regarding `Cc1ccc([C@H]2C[C@@H](c3cc4nc(C)n(C)c(=O)c4c(-c4ccc(Cl)cc4F)n3)CCO2)cn1` [Example 273, 5-(4-chloro-2-fluorophenyl)-2,3-dimethyl-7-((2R,4S)-2-(6-methylpyridin-3-yl)tetrahydro-2H-pyran-4-yl)pyrido[4,3-d]pyrimidin-4(3H)-one], at hTREM2 [2], the Emax entry is listed as “++++ (Emax>300)” and the EC50 was 50 to 500 nM. Take `Cc1ccc([C@@H]2C[C@H](c3cc4nc(C)n(C)c(=O)c4c(-c4ccc(Cl)cc4F)n3)CCO2)cn1` [Example 274, 5-(4-chloro-2-fluorophenyl)-2,3-dimethyl-7-((2S,4R)-2-(6-methylpyridin-3-yl)tetrahydro-2H-pyran-4-yl)pyrido[4,3-d]pyrimidin-4(3H)-one]: on hTREM2 [2], the Emax result is on record as “++++ (Emax>300)” and the EC50 is 50 to 500 nM. Turning to `Cc1nc2cc([C@@H]3CCO[C@H](c4cnn(C)c4)C3)nc(-c3ccc(Cl)cc3F)c2c(=O)n1C` [Example 275, 5-(4-chloro-2-fluorophenyl)-2,3-dimethyl-7-((2S,4R)-2-(1-methyl-1H-pyrazol-4-yl)tetrahydro-2H-pyran-4-yl)pyrido[4,3-d]pyrimidin-4(3H)-one], on hTREM2 [2], the Emax entry was “++ (Emax>100 and ≤200)”; the EC50 is under 50 nM. Compound `Cc1cc(C2CN(c3cc4nc(C)n(C)c(=O)c4c(-c4ccc(F)cc4F)n3)CCO2)ccn1` (centres unmarked) [Example 276, 5-(2,4-difluorophenyl)-2,3-dimethyl-7-(2-(2-methylpyridin-4-yl)morpholino)pyrido[4,3-d]pyrimidin-4(3H)-one] displayed a concentration for a half-maximal effect (EC50) at hTREM2 [1] of under 50 nM. `Cc1cc([C@H]2C[C@@H](c3cc4nc(C)n(C)c(=O)c4c(-c4ccc(C(F)(F)F)nc4)n3)CCO2)ccn1` [Example 277, 2,3-dimethyl-7-(2-(2-methylpyridin-4-yl)tetrahydro-2H-pyran-4-yl)-5-(6-(trifluoromethyl)pyridin-3-yl)pyrido[4,3-d]pyrimidin-4(3H)-one] came in with an EC50 on hTREM2 [1] of 50 to 500 nM. Same read-out and setting: as for `COc1cc(C2CN(c3cc4nc(C)n(C)c(=O)c4c(-c4ccc(F)cc4F)n3)CCO2)ccn1` (centres unmarked) [Example 279, 5-(2,4-difluorophenyl)-7-(2-(2-methoxypyridin-4-yl)morpholino)-2,3-dimethylpyrido[4,3-d]pyrimidin-4(3H)-one], the figure is under 50 nM; as for `Cc1cc(C2CN(c3cc4nc(C)n(C)c(=O)c4c(-c4ccc(C(F)(F)F)nc4)n3)CCO2)ccn1` (centres unmarked) [Example 280, 2,3-dimethyl-7-(2-(2-methylpyridin-4-yl)morpholino)-5-(6-(trifluoromethyl)pyridin-3-yl)pyrido[4,3-d]pyrimidin-4(3H)-one], under 50 nM. On the same count and under the same terms, the figure for `Cc1cc(C2CN(c3cc4nc(C)n(C)c(=O)c4c(C45CC(C(F)(F)F)(C4)C5)n3)CCO2)ccn1` (centres unmarked) [Example 282, 2,3-dimethyl-7-(2-(2-methylpyridin-4-yl)morpholino)-5-(3-(trifluoromethyl)bicyclo[1.1.1]pentan-1-yl)pyrido[4,3-d]pyrimidin-4(3H)-one] is under 50 nM; for `COc1cc(C2CN(c3cc4nc(C)n(C)c(=O)c4c(C45CC(C(F)(F)F)(C4)C5)n3)CCO2)ccn1` (centres unmarked) [Example 283, 7-(2-(2-methoxypyridin-4-yl)morpholino)-2,3-dimethyl-5-(3-(trifluoromethyl)bicyclo[1.1.1]pentan-1-yl)pyrido[4,3-d]pyrimidin-4(3H)-one] it is 50 to 500 nM. For “ethyl (2R,4S)-4-(5-(4-chloro-2-fluorophenyl)-2,3-dimethyl-4-oxo-3,4-dihydropyrido[4,3-d]pyrimidin-7-yl)tetrahydro-2H-pyran-2-carboxylate and ethyl (2S,4R)-4-(5-(4-chloro-2-fluorophenyl)-2,3-dimethyl-4-oxo-3,4-dihydropyrido[4,3-d]pyrimidin-7-yl)tetrahydro-2H-pyran-2-carboxylate [Example 167]”, at hTREM2 [2], the Emax entry was “++++ (Emax>300)” and the EC50 fell in the range of 50 to 500 nM.

With “ethyl (2S,4S)-4-(5-(4-chloro-2-fluorophenyl)-2,3-dimethyl-4-oxo-3,4-dihydropyrido[4,3-d]pyrimidin-7-yl)tetrahydro-2H-pyran-2-carboxylate and ethyl (2R,4R)-4-(5-(4-chloro-2-fluorophenyl)-2,3-dimethyl-4-oxo-3,4-dihydropyrido[4,3-d]pyrimidin-7-yl)tetrahydro-2H-pyran-2-carboxylate [Example 168]”, on hTREM2 [2], the Emax result is “+++ (Emax>200 and ≤300)”; the EC50 lay in the range of 3000 to 100000 nM.

These data come from patent publication US20250388574A1, “HETEROCYCLIC COMPOUNDS AS TRIGGERING RECEPTOR EXPRESSED ON MYELOID CELLS 2 AGONISTS AND METHODS OF USE” (AMGEN INC., priority 2020, published 2025).
